# Reference: ChEMBL document CHEMBL4392874, “Inhibitory Effects of Phenylpropanoid Derivatives from Oenanthe javanica on Antigen-Stimulated Degranulation in RBL-2H3 Cells” (J Nat Prod, 2019)
# Legend:
# RBL-2H3 [1] = experiment: Antiallergic activity in […]-stimulated rat RBL2H3 cells assessed as inhibition of anti-DNP-IgE-mediated degranulation by measuring decrease in beta-hexosaminidase activity preincubated for 20 mins followed by DNP-BSA stimulation; format: functional, cell-based
# RBL-2H3 [2] = experiment: Antiallergic activity in rat RBL2H3 cells assessed as inhibition of A23187-induced beta hexosaminidase release after 1 hr by para-nitrophenyl-N-acetyl-beta-d-glucosaminide substrate based assay; format: functional, cell-based
# RBL-2H3 [3] = experiment: Antiallergic activity in rat RBL2H3 cells assessed as inhibition of A23187/PMA-induced beta hexosaminidase release after 1 hr by para-nitrophenyl-N-acetyl-beta-d-glucosaminide substrate based assay; format: functional, cell-based
# RBL-2H3 [4] = experiment: Cytotoxicity against rat RBL2H3 cells assessed as reduction in cell viability at 6.3 to 50 ug/ml measured after 3 hrs by CCK8 assay; format: cell-based; settings: rbl-2h3, 3 h
# HeLa = experiment: Cytotoxicity against human HeLa cells assessed as reduction in cell viability at 12.5 to 100 ug/ml measured after 12 hrs by crystal violet staining based assay
Compound,inhibition (RBL-2H3 [1]),inhibition (RBL-2H3 [2]),inhibition (RBL-2H3 [3]),Activity (RBL-2H3 [4]),Activity (HeLa)
O=C(/C=C/c1ccc(O)c(O)c1)O[C@H]1[C@@H](C(=O)O)OC(C(=O)O)=C[C@H]1OC(=O)/C=C/c1ccc(O)c(O)c1,Dose-dependent effect,Dose-dependent effect,Dose-dependent effect,Non-Toxic,Non-Toxic
O=C(O)C(=Cc1ccc(O)cc1)/C=C/c1ccc(O)cc1 (mixture of isomers),Dose-dependent effect,Dose-dependent effect,Dose-dependent effect,Non-Toxic,Non-Toxic
COc1cc(-c2oc3cc(O)cc(O)c3c(=O)c2O)ccc1O [ISORHAMNETIN],–,–,–,–,Non-Toxic
O=C1O[C@H](c2ccc(O)cc2)[C@@H](C(=O)O)/C1=C\c1ccc(O)cc1,Dose-dependent effect,Dose-dependent effect,Dose-dependent effect,Non-Toxic,Non-Toxic
O=c1c(O)c(-c2ccc(O)c(O)c2)oc2cc(O)cc(O)c12 [QUERCETIN],–,–,–,–,Toxic
